Test results reported in patent US11273161B2, “Methods of treating autism spectrum disorders” (The Broad Institute, Inc., priority 2016, dated 2022).

Tests used:
ADSS [1] = assay: Western blot of ADSS protein levels in neurons after proteasome or Cullin inhibition; assay type: cell-based, mouse; settings: neurons from Kctd13Δ47 mice, treated 5 hours with 2 μM, FIG. 5
From the text: Protein lysates were generated from mouse neurons prepared from wildtype or Kctd13Δ47 mice. C57B6 timed pregnant females were euthanized following IACUC approved method. E18 embryos were collected and rapidly decapitated. Embryos were then washed in dissection media (Hibernate-E (Hib-E, Gibco) supplemented with 100 U/mL penicillin streptomycin (Pen/Strep, Gibco)). Brains were isolated, cortices were separated from the midbrain and meninges was removed from each cortex. Each cortex was cut into six pieces; five cortices were pooled for dissociation. To dissociate 5 cortices, one Papain kit (Worthington LK3176) was reconstituted in 5 mLs Hib-E and activated at 37° C. for 10 minutes. Following activation, DNAse I (Sigma) was added to a concentration of 10 μg/mL and filter sterilized using a 0.22 μm filter. Cortices were washed twice with 5 mLs of Hib-E and 5 mLs of activated papain/DNAseI was added to the cortices and incubated for 8 minutes at 37° C. Following digestion, cortices were washed three times with 10 ml Hib-E per wash. Cortices were then triturated 10-15 times with a P1000 pipette in 1 mL NBActive4 supplemented with 10 μg/mL DNAseI filter sterilized using a 0.22 μm filter. […] Cells were counted in a hemocytometer, diluted and plated at 1 million cells/well in a 6 well poly-D-lysine (Corning, Biocoat) or 6 million cells/10 cm poly-D-lysine plate (Corning, Biocoat). […]

ADSS [2] = target: T1, ADSS (Mus musculus, UniProt P46664); assay: Dose-response of IMP levels in cell lysates of DIV21 neurons from WT mice; assay type: cell-based; settings: FIG. 20
T1 construct: endogenous in cells; host or cells: primary mouse neurons, DIV21 (WT in A3; WT and Kctd13Δ47 in A4)
T1 sequence (P46664 whole entry): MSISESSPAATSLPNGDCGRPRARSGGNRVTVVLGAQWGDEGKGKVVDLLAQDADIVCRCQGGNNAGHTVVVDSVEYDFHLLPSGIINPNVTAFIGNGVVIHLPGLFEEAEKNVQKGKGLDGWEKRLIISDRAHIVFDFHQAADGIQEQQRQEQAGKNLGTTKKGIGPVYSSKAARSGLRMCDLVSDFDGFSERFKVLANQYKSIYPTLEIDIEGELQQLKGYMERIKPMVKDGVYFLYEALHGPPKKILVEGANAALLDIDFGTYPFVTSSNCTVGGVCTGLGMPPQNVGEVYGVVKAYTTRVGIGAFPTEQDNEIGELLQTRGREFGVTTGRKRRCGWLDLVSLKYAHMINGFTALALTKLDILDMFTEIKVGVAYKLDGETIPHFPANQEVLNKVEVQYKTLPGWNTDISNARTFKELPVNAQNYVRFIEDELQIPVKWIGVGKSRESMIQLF
Method: FIGS. 20A-B show IMP levels in cell lysates of DIV21 neurons from WT mice following treatment with D, L-alanosine or L-alanosine, or untreated (U).
16p11.2 deletion patient fibroblast samples were acquired from the Simons Foundation VIP collection. For comparison, fibroblasts from unaffected individuals were obtained from Mclean Hospital collection of primary fibroblasts (Cohen, Ongur, McPhee). Fibroblasts were grown in DMEM supplemented with 10% serum (Gibco). For metabolic experiments, 160,000 cells/well were plated in DMEM (Gibco) supplemented with 10% fetal bovine serum (Gibco) in 12 well plates. […]
Next, metabolic changes were determined between 16p11.2 deletion patient fibroblasts compared with control fibroblasts. […]
(§1) Raw data were processed using MultiQuant 1.2 software (AB SCIEX) for automated LC-MS peak integration. […] Internal standard peak areas were monitored for quality control, to assess system performance over time, and to identify any outlier samples requiring re-analysis. A pooled plasma reference sample was also analyzed after sets of 20 study samples as an additional quality control measure of analytical performance and to serve as reference for scaling raw LC-MS peak areas across sample batches. […]
Next, purine metabolites were assessed in cell lysates and supernatants of cultured neurons from wild-type and kctd13Δ47 mice. […]

ADSS [3] = target: T1, ADSS; assay: S-Ado levels in cultured neurons from kctd13Δ47 mice contacted with L-alanosine; assay type: cell-based; settings: increasing concentrations (0, 0.01, 0.1 μM), FIG. 22
Method: (§2) 16p11.2 deletion patient fibroblast samples were acquired from the Simons Foundation VIP collection. For comparison, fibroblasts from unaffected individuals were obtained from Mclean Hospital collection of primary fibroblasts (Cohen, Ongur, McPhee). Fibroblasts were grown in DMEM supplemented with 10% serum (Gibco). For metabolic experiments, 160,000 cells/well were plated in DMEM (Gibco) supplemented with 10% fetal bovine serum (Gibco) in 12 well plates. For neurons, 1 million primary mouse neurons/well were plated in 6 well plates and were extracted similar to fibroblasts as described below except volumes were doubled to accommodate the extra surface area.
Next, metabolic changes were determined between 16p11.2 deletion patient fibroblasts compared with control fibroblasts. For metabolite extraction, samples were collected from either cells or the cell media. […]
as §1

ADSS [4] = target: T2, ADSS (Homo sapiens, UniProt P30520); assay: LC-MS purine metabolite levels in human control fibroblast cell lysates after ADSS inhibition; assay type: cell-based; settings: human control fibroblasts, 12 hours, 10 mg/mL, FIG. 19
T2 construct: fibroblasts from unaffected individuals were obtained from Mclean Hospital collection of primary fibroblasts; endogenous in cells; host or cells: primary human control fibroblasts (McLean Hospital collection)
T2 sequence (P30520 whole entry): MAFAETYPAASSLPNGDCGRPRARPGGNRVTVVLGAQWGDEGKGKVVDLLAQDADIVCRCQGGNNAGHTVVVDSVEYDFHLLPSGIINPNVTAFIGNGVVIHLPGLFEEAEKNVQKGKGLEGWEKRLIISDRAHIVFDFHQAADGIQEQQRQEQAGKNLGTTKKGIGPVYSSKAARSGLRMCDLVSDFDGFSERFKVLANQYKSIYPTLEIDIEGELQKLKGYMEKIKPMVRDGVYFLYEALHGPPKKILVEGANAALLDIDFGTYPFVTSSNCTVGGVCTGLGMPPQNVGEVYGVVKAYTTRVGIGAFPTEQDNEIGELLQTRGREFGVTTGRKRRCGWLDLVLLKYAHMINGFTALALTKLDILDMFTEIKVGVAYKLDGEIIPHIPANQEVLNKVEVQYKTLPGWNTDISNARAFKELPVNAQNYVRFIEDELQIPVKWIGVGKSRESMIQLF
Method: as §2
Next, metabolic changes were determined between 16p11.2 deletion patient fibroblasts compared with control fibroblasts. For metabolite extraction, samples were collected from either cells or the cell media. Cell samples were extracted from cells grown in 12 well plates. Cell samples were extracted by washing cells once with 1 mL ice-cold PBS, transferring to dry ice, followed by adding 400 μL of 80% methanol (VWR) containing the internal standards inosine-^15N4, thymine-d4, and glycocholate-d4 (Cambridge Isotope Laboratories). Cells were then incubated for 15 minutes at −80° C., followed by scraping and transfer of the methanol and cells to a 1.5 mL tube. Cells were centrifuged (10 min, 9,000 g, 4° C.), and the supernatant was transferred to a new 1.5 mL tube. The pellet was extracted again with 50 μL of 80% methanol containing internal standards and centrifuged. The supernatant was then pooled with the previously collected methanol sample. Media supernatant samples (30 μL) were extracted using 120 μL of 80% methanol (VWR) containing the internal standards inosine-^15N4, thymine-d4, and glycocholate-d4 (Cambridge Isotope Laboratories). The samples were centrifuged (10 min, 9,000 g, 4° C.). The resulting supernatant was transferred to a new tube. Samples were stored at −80° C. until analysis.
A method using basic hydrophilic interaction chromatography (HILIC) separation and negative ionization mode MS detection was established on an LC-MS system consisting of an ACQUITY UPLC (Waters Inc.) coupled to a 5500 QTRAP triple quadrupole mass spectrometer (AB SCIEX). […]
as §1

`NS(=O)(=O)OC[C@@H]1C[C@@H](n2ccc3c(N[C@H]4CCc5ccccc54)ncnc32)C[C@@H]1O` [MLN4924] was tested, and the “change in ADSS levels” value (ADSS [1]) was “no change”.

In the case of `CC(C)C[C@H](NC(=O)[C@H](Cc1ccccc1)NC(=O)c1cnccn1)B(O)O` [bortezomib], the “change in ADSS levels” value (ADSS [1]) is reported as “no change”.

For `N[C@@H](CN(O)N=O)C(=O)O` [L-alanosine, L-2-amino-3-(N-hydroxy-N-nitrosamino) propionic acid], the IMP levels (ADSS [2]) was “dose-dependent increase”, the S-Ado levels (ADSS [3]) was “decreased” and the “levels of ADP” value (ADSS [4]) was “decreased”. For the same molecule, the “levels of AMP” value (ADSS [4]) was “decreased”, the “levels of IMP” value (ADSS [4]) was “increased” and the “levels of aminoimidazole carboxamide ribotide (AICAR)” value (ADSS [4]; metabolite upstream of ADSS) was “not affected”.

For `NC(CN(O)N=O)C(=O)O` (racemic) [D,L-alanosine, 3-(Hydroxynitrosoamino)-D,L-alanine], the IMP levels (ADSS [2]) was “dose-dependent increase”.
